Source: PMC11773056, “The zymogenic form of SARS-CoV-2 main protease: A discrete target for drug discovery” (The Journal of Biological Chemistry, 2024)

Target: T1, M^pro expressed from mCherry-repM^pro-eGFP (total protease, all forms) (Severe acute respiratory syndrome coronavirus 2, UniProt P0DTD1)
T1 construct: gene rep
Experiment: cell-based
Settings: read-out: HEK293T cells, reporter mCherry-repM^pro-eGFP / Total inhibition EC50

**Q.** Which EC50 does the source give for `O=C(Oc1cncc(C(F)(F)F)c1)c1cccc2[nH]ccc12` [compound 1, Compound 1] here?
**A.** Its EC50 is 12.1 ± 2.8 µM.
